Assay results published in patent publication US5519016A, “Aryl group- or aromatic heterocyclic group-substituted aminoquinolone derivatives and anti-HIV agent” (priority 1992, dated 1996).

How the values were obtained:
[1] = test system: HIV; assay: microbe, parasite or virus in culture; assay type: cell-based; details: Pauwel method
Source text: Exponentially growing MT-4 cells were centrifuged, and the pellets were resuspended in RPMI-1640 medium containing 10% fetal serum (serum medium). Portions of the cell suspension were either inoculated with HIV, or left uninfected. Serum medium was then further added to the suspensions, which were then washed and centrifuged. The resulting pellets were then suspended in serum medium to a concentration of 4×10^5 cells/mi. Preparations of the test compound (in serum medium) were […] in a stepwise manner, and 100 μl of each of the solutions were placed in separated wells of a 96-well plastic microtitre plate. 100 μl of each of the cell suspensions (infected and non-infected) were then added to the wells, so that each dilution of each of the test compounds was tested against both infected and noninfected cells. Blanks (not added either of the cells) were also prepared. The preparations were then cultured by standing the plate at 37° C. for 5 days in the presence of 5 % carbon dioxide gas.
At the end of this time, living cells were assayed for CPE inhibitory activity by the spectrophotometric assay of the blue formazan produced by the reduction of MTT [3-(4,5-dimethylthiazol-2-yl) -2,5-diphenyl-tetrazolium bromide]which was added to the preparations.
CPE inhibitory activity was defined as 100% in non-infected cells to which no test compounds had been added, while CPE inhibitory activity was defined as 0% in infected cells to which test compounds had not been added.

[2] = test system: HIV; details: literature / WO-A-90-13542; cited from earlier work

## NC1CCN(c2nc3c(cc2F)c(=O)c(C(=O)O)cn3-c2ccc(F)cc2F)C1 (centres unmarked) [Tosufloxacin, reference compound]
[1]
  anti-HIV activity (in words): little or no anti-HIV activity
[2]
  anti-HIV activity (reported): anti-HIV activity
